In general, EC50 refers to the concentration needed to bring the measured effect to its halfway point. Low readings indicate a more potent agent, high ones a less potent agent.

Results on 2 compounds are retold here after ChEMBL document CHEMBL3853262 (Medchemcomm, 2016).

Assay type in all cases: functional, cell-based
One assay deals with BJ. The assay can be described thus: Proapoptotic activity in human BJ cells by annexin V-FITC/propidium iodide staining-based capillary cytometric method.
In the next assay the test system is ASPC1. The experiment in a line: Proapoptotic activity in human AsPC1 cells by annexin V-FITC/propidium iodide staining-based capillary cytometric method.
The next assay has as its system NTERA-2-cl-D1. The experiment in a line: Proapoptotic activity in human NT2/D1 cells by annexin V-FITC/propidium iodide staining-based capillary cytometric method.
The test system of the next assay is BXPC-3. The assay can be described thus: Proapoptotic activity in human BxPC3 cells by annexin V-FITC/propidium iodide staining-based capillary cytometric method.

Turning to `Nc1nc(-c2cccc(NC(=O)c3cc4cc(Cl)ccc4[nH]3)c2)c[nH]1`, the EC50 stood at 20 µM in the assay on BJ, 19 µM with ASPC1, 16 µM with NTERA-2-cl-D1 and 25 µM in the assay with BXPC-3.
As to `COc1ccc2[nH]c(C(=O)Nc3cccc(-c4c[nH]c(N)n4)c3)cc2c1`, the EC50 was found to be 31 µM with BJ, 52 µM with ASPC1, 16 µM with NTERA-2-cl-D1 and 53 µM with BXPC-3.
